Data from US6984619B1, “Method for protection against tumor metastasis formation” (Arch Development Corporation, priority 1999, dated 2006).
Entries after “also recorded” stand apart in the source; their conditions may differ. Like-named read-outs stand apart in the source and are kept apart here.

How the values were obtained:
[1] = molecular target: T1, MMP-2 (Homo sapiens, UniProt P08253); assay: Gelatin zymography of medium from treated U251 glioma cells, MMP-2; type: cell-based; details: for reduction of MMP-2 activity/secretion: 10 mM; for reduction of MMP-2 activity/secretion / inhibition of MMP-2 activity/secretion: 24 h
T1 construct: Medium was isolated at the indicated times, centrifuged at 1000 rpm for 5 min to remove debris; endogenous in cells; host or cells: U251 human glioma cells (serum-free conditioned medium)
T1 sequence (P08253 110-660): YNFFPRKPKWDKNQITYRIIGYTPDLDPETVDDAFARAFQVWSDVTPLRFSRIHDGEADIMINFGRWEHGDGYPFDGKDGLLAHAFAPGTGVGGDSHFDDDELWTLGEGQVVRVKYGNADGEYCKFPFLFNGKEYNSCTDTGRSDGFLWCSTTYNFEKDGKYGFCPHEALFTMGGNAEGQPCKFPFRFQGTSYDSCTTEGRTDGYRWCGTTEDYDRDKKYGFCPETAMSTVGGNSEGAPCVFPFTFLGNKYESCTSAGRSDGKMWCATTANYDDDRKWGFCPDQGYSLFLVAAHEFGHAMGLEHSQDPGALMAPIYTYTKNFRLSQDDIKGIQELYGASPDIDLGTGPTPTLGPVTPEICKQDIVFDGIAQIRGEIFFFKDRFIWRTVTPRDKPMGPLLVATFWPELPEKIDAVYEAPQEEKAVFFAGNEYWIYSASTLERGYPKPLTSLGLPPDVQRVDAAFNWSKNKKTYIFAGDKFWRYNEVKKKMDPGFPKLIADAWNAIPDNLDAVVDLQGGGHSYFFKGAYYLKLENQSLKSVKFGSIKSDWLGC
Protocol: (§1) U251 Glioma Cells were grown to confluence in 6-well plates. Medium was removed, the cells washed twice with 37° C. PBS, and serum-free medium added. The cells were treated as follows: • Control—24 h, 48 h 72 h • 40 μM SH—24 h, 48 h 72 h (continuous exposure) • 10 ng/ml TNFα—24 h, 48 h, 72 h (continuous exposure). Medium was isolated at the indicated times, centrifuged at 1000 rpm for 5 min to remove debris, and stored at −80° C. until use. Protein was quantitated using the Bradford method. 252 ng of protein was loaded on 10% zymogram (gelatin) gels (Novex, San Diego, Calif.) and electrophoresed at 125 volts for 90 min in Tris-Glycine SDS buffer. After running, the gels were incubated in zymogram renaturing buffer (100 ml) for 30 min at room temperature with gentle agitation. The buffer was removed and fresh zymogram developing buffer (100 ml) added and the gels incubated at 37° C. overnight with gentle agitation. The following day the gels were stained with 0.5% coomassie blue R-250 for 30 min, and destained. Areas of protease activity show up as clear bands. This assay will detect MMP-2 and MMP-9.
(§2) Same protocol as above. Treatment conditions were as follows: • Control—24 h • 4 mM SH—24 h (continuous exposure) • 10 mM L-NAC—24 h (continuous exposure) • 10 mM L-NAC—24 h (continuous exposure) • 10 mM Captopril—24 h (continuous exposure) • 50 mM EDTA—24 h (chelator) • 4 mM SH+50 mM EDTA—24 h • 10 mM L-NAC+50 mM EDTA—24 h • 10 mM D-NAC+50 mM EDTA—24 h • 10 mM Captopril+50 mM EDTA—24 h • 40 μM SH—24 h • 10 ng/ml TNFα—24 h

[2] = molecular target: T2, MMP-9 (Homo sapiens, UniProt P14780); assay: Gelatin zymography of medium from treated U251 glioma cells, MMP-9; type: cell-based; details: for reduction of MMP-9 activity/secretion: 10 mM
T2 construct: Medium was isolated at the indicated times, centrifuged at 1000 rpm for 5 min to remove debris; endogenous in cells; host or cells: U251 human glioma cells (serum-free conditioned medium)
T2 sequence (P14780 94-707): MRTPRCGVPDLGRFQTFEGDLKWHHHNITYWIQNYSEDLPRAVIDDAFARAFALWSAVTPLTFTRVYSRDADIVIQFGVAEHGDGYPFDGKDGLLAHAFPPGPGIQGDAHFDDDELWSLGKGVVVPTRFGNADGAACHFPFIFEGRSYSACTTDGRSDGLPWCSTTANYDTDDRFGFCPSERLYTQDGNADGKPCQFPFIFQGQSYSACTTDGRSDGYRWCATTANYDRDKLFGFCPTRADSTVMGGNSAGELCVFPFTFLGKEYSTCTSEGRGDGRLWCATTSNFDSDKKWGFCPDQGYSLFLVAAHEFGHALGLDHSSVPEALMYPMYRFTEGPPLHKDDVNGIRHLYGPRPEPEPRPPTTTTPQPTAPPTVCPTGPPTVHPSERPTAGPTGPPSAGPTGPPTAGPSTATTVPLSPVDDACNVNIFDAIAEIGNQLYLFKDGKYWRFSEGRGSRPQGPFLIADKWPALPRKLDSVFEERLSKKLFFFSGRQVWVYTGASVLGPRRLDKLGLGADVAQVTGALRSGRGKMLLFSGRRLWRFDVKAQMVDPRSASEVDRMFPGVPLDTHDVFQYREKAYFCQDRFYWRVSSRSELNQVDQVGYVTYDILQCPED
Protocol: as §1, §2

[3] = tested on: SA-NH; assay: Spontaneous lung metastasis assay, SA-NH sarcoma implanted i.m., leg amputated; type: in vivo, C3Hf/Kam mice; details: for probability of developing spontaneous metastases (FIG. 1): 200, 100 or 50 mg/kg i.p., greater effects at the lower doses
Protocol: (§3) Animal system and experimental tumors. Experiments have been performed using C3Hf/Kam mice obtained from the University of Texas M.D. Anderson Cancer Center, Houston, Tex. Male mice were at least 110 days of age at the initiation of studies. Studies involving tumors included the use of two syngeneic adenocarcinomas (MCa-K and OCa-I,) and one sarcoma (SA-NH). Tumors were grown in the hind legs or flanks of animals. Single-cell suspensions of 5×10^5 viable tumor cells prepared from excised tumors were injected into the hind leg (spontaneous metastasis assay) or the lateral tail veins (artificial metastasis assay) of mice to develop pulmonary nodules (D. J. Grdina et al., 1974; D. J. Grdina et al., 1977; N. Suzuki et al., 1977; D. J. Grdina et al., 1978). For the spontaneous metastases studies, each thiol was administered on the first day following tumor cell inoculation, and then every third day until the tumor reaches 8.0 to 8.5 mm in diameter. At that time the tumor bearing leg is amputated and thiols were administered two and four days later. Twenty-three days following amputation, the animals were sacrificed, their lungs removed, fixed in Bouin's solution, and lung metastases counted. For the artificial metastases studies, mice were sacrificed 14 days after tumor cell inoculation and lung metastases counted (D. J. Grdina et al., 1974; D. J. Grdina et al., 1977; N. Suzuki et al., 1977; D. J. Grdina et al., 1978).
This tumor is p53 wild-type (R. Schimming et al., 1999). A tumor cell suspension containing 5×10^5 viable SA-NH cells was implanted i.m. into the right thighs of three month old male C3Hf/Kam mice. When tumors grew to 8 to 8.5 mm in diameter, each tumor bearing leg was amputated and the animals were then sacrificed 23 days later to assess both the incidence of mice developing metastases and numbers of spontaneous lung metastases formed per mouse. To assess the effects of amifostine on this process, different groups of mice were injected i.p. with 200, 100, or 50 mg/kg of WR-2721 according to the following protocol: drug administration on the first day following inoculation with tumor cells and then every third day until amputation with a final injection 2 days later.
Presented in Table 1 is a comparison of the effects of amifostine on the mean number of spontaneous metastases formed in the lungs of mice. Table 2 presents data regarding the effects of amifostine on affecting the incidence of metastasis formation using these tumor systems. The level of significance was determined using a t-test for binomial proportions (Walpole and Myers, 1978). Treatment of animals with 50 mg/kg of amifostine reduced the incidence of spontaneous metastasis development by these tumors at a level of significance of p<0.025.

[4] = tested on: MCa-K; assay: Spontaneous lung metastasis assay, MCa-K adenocarcinoma; type: in vivo, C3Hf/Kam mice; details: 50 mg/kg WR-2721, MCaK tumor
Protocol: as §3, with “For the spontaneous metastases studies, each thiol was administered on the first day following tumor cell inoculation, and then every third day until the tumor reaches 8.0 to 8.5 mm in diameter. At that time the tumor bearing leg is amputated and thiols were administered two and four days later.” left out
(§4) Presented in Table 1 is a comparison of the effects of amifostine on the mean number of spontaneous metastases formed in the lungs of mice. […] The level of significance was determined using a t-test for binomial proportions (Walpole and Myers, 1978). […]

[5] = tested on: OCa-I; assay: Spontaneous lung metastasis assay, OCa-I adenocarcinoma; type: in vivo, C3Hf/Kam mice; details: 50 mg/kg WR-2721, OCa tumor
Protocol: as §3, with “For the spontaneous metastases studies, each thiol was administered on the first day following tumor cell inoculation, and then every third day until the tumor reaches 8.0 to 8.5 mm in diameter. At that time the tumor bearing leg is amputated and thiols were administered two and four days later.” left out
as §4

[6] = tested on: angiostatin; assay: Blood angiostatin by Western blot in mice with or without SA-NH tumor; type: in vivo, C3Hf/Kam mice
Protocol: FIG. 2. SA-NH Murine Tumor. Tumor cells (3–5×10^5) were injected into right leg muscle of C3Hf/Kam male mice. Each group consisted of 5 mice. Mice were injected i.p. with 50 mg/kg of Amifostine (Ami) one day after innoculation with viable tumor and every third day (4 times) until amputation (Amp). When tumors grew to 8–9 mm in diameter, the tumor-bearing leg was amputated. Blood was collected using a 1 ml tuberculine syringe rinsed with EDTA (100 mg/ml) or heparin and placed in an EDTA-coated microcentrifuge tube and centrifuged at 250 rpm for 10 min. The resulting supernatants were collected and frozen at −70° C. until assayed for angiostatin by Western blot analysis.
Low non-cytoprotective doses of Amifostine, in the range of 50 to 100 mg/kg, were administered every other day for six days to C3Hf/Kam mice bearing SA-NH sarcomas and twice thereafter following the surgical removal of the tumors. […] Amifostine or its free thiol form designated WR-1065 was further evaluated regarding three processes implicated in the metastatic process. (FIG. 2).

[7] = Blood level of WR-2721 in mice; type: in vivo; details: 400 mg/kg dose
Protocol: It is also understood that uptake after is species and organ/tissue dependent. The applicable conversion factors and physiological assumptions to be made concerning uptake and concentration measurement are well-known and would permit those of skill in the art to convert one concentration measurement to another and make reasonable comparisons and conclusions regarding the doses, afficacies and results described herein. By way of example only, in mice given 100 mg/kg WR-2721, 30-minute blood levels are reported at 49 micrograms/ml or 0.23 mM. Accordingly, a 400 mg/kg dose would correspond to a concentration of WR-2721 of about 1.0 mM. Likewise, a human subject given about 740 mg/m^2 of WR-2721 (by IV infusion) would have an initial plasma level at about 100 micromol/liter or 0.1 mM.

[8] = C3H mouse system; cited from earlier work
[9] = tested on: hprt locus in splenocytes; details: mice; cited from earlier work
[10] = cited from earlier work
[11] = tested on: MnSOD gene expression; assay: MnSOD gene expression in glioma cells (Northern blot); type: cell-based, human
From the text: FIG. 6. Effect of Amifostine on MnSOD Expression. Kinetics of manganese superoxide dismutase (MnSOD) gene expression induced in human glioma tumor cells as a function of time by WR1065, the active form of amifostine, are presented for comparison. Also included in the upper right hand corner is a representative Northern blot used to quantitate gene expression. Gene expression was induced over 3-fold as compared to untreated controls.
As previously discussed, manganese superoxide dismutase (MnSOD) has been identified as important anti-oxidant gene whose expression reduces the malignant/metastatic phenotype of cancer cells (Safford et al., 1995). Tumor cells are relatively lower in MnSOD than are normal cells. Increasing MnSOD in tumor cells causes them to loose their ability to be metastatic. As described in FIG. 6, exposure of tumor cells to WR-1065 leads to enhanced gene expression of MnSOD. […] The peak level of MnSOD expression was almost twice that observed in normal human endothelial cells exposed to WR-1065.

[12] = TNFα 10 ng/ml, continuous exposure

Compound: CC(=O)N[C@@H](CS)C(=O)O [L-NAC, N-acetyl-L-cysteine]
- reduction of MMP-2 activity/secretion [1]: 69%
- reduction of MMP-9 activity/secretion ([2]; 24 h): 73%

Compound: Tumor Necrosis Factor alpha [TNFα]
- suppression of MMP-2 secretion at 48 h and 72 h [1, 12]: still able to suppress
- MMP-9 activity at 48 h and 72 h [2, 12]: continued to cause enhanced activity

Compound: NCCCNCCSP(=O)(O)O [WR-2721, S-2-(3-aminopropylamino)ethyl phosphorothioic acid]
- number of spontaneous metastases (mean ± s.e.) ([3]; 50 mg/kg WR-2721 i.p., lung metastases per mouse, Sa-NH tumor): 2.9 ± 1.1
- reduction in the development of spontaneous metastases in the lungs ([3]; 50 to 100 mg/kg every other day for six days and twice after surgical removal of tumor): four-fold
- probability of developing spontaneous metastases (FIG. 1) ([3]; listed as Amifostine): actually reduced it
- probability of developing spontaneous metastases (FIG. 1) ([3]; listed as amifostine): reduces the chances of developing spontaneous metastases
- number of spontaneous metastases (mean ± s.e.) [4]: 1.7 ± 1.3
- number of spontaneous metastases (mean ± s.e.) [5]: 0.5 ± 0.14
- enhancement of angiostatin levels found in control mice ([6]; Amifostine injections, 50 mg/kg i.p. (FIG. 2)): four-fold
- angiostatin level after removal of tumors ([6]; continued Amifostine treatment following tumor removal): equal to presurgery levels
- induction of angiostatin production ([6]; tumor-free and tumor-bearing mice (FIG. 2)): effective in inducing angiostatin production
- concentration of WR-2721 corresponding to dose [7]: about 1.0 mM
- cytoprotection at doses below 100 mg/kg [8]: completely ineffective
- dose required for maximum cytoprotection [8]: 400 mg/kg
- doses at which the antimutagenic effect diminishes [9]: less than 10 mg/kg
- net charge ([10]; disulfide form): +4
- net charge ([10]; thiol form): +2

Compound: O=C(O)CN(CCN(CC(=O)O)CC(=O)O)CC(=O)O [EDTA]
- inhibition of MMP-2 activity/secretion ([1]; 50 mM EDTA): completely inhibiting; also recorded: completely inhibited; also recorded: completely blocked
- inhibition of MMP-9 activity/secretion ([2]; 50 mM EDTA, 24 h): completely inhibiting; also recorded: completely inhibited; also recorded: completely blocked

Compound: CC(=O)N[C@H](CS)C(=O)O [D-NAC]
- reduction of MMP-2 activity/secretion [1]: 74%
- reduction of MMP-9 activity/secretion ([2]; 24 h): 85%

Compound: C[C@H](CS)C(=O)N1CCC[C@H]1C(=O)O [Captopril]
- reduction of MMP-2 activity/secretion [1]: completely inhibited
- reduction of MMP-9 activity/secretion ([2]; 24 h): completely inhibited

Compound: NCCCNCCS [WR-1065, 2-[(aminopropyl)amino]ethanethiol]
- ability to reduce MMP-2 secretion at 48 h and 72 h ([1]; 40 μM SH, continuous exposure): lost
- reduction of MMP-2 activity/secretion relative to control ([1]; 40 μM WR-1065 (SH), 24 h (b119 prints 45 h)): 45%
- MMP-2 activity, of control levels ([1]; 40 μM, 24 h exposure): 55%
- inhibition of MMP-2 activity/secretion ([1]; 4 mM WR-1065 (SH)): completely inhibiting
- inhibition of MMP-2 activity/secretion ([1]; 4 mM WR-1065 (SH), listed as SH): completely inhibited
- ability to affect MMP-9 activity at 48 h and 72 h ([2]; 40 μM SH, continuous exposure): lost
- reduction of MMP-9 activity relative to control ([2]; 40 μM WR-1065 (SH), 24 h): 5%
- inhibition of MMP-9 activity/secretion ([2]; 4 mM WR-1065 (SH), 24 h): completely inhibiting
- inhibition of MMP-9 activity/secretion ([2]; 4 mM WR-1065 (SH), 24 h, listed as SH): completely inhibited
- peak level of MnSOD expression relative to normal human endothelial cells exposed to WR-1065 ([11]; U87 glioma cells versus normal human endothelial cells): almost twice
- MnSOD gene expression during an additional 12 h ([11]; human glioma U87 cells, 12 to 24 h): remained at that elevated level
- MnSOD gene expression enhanced ([11]; human glioma U87 cells, after 12 h): 2.5 fold
- MnSOD gene expression induced as compared to untreated controls ([11]; human glioma tumor cells, FIG. 6 legend): over 3 fold
